Reference: ChEMBL document CHEMBL4619763 (J Nat Prod, 2020)

Key:
Rattus norvegicus [1] = assay: Diuretic activity in normotensive Wistar rat assessed as urinary calcium excretion at 1 mg/kg, po administered via gavage after 8 hrs (reference value: 5.93 to 6.87 mg/dl); type: functional
Rattus norvegicus [2] = assay: Diuretic activity in normotensive Wistar rat assessed as urine pH at 1 mg/kg, po administered via gavage after 8 hrs (reference value: 6.14 to 6.21); type: functional
Rattus norvegicus [3] = assay: Diuretic activity in normotensive Wistar rat assessed as urinary potassium excretion at 0.01 mg/kg, ip […] after 8 hrs (reference value: 22.33 +/- 2.81 mmol/L); type: ADME, organism-based; conditions: in vivo
Rattus norvegicus [4] = assay: Diuretic activity in normotensive Wistar rat assessed as urinary calcium excretion at 0.01 mg/kg, […] administered via gavage after 8 hrs (reference value: 5.28 +/- 0.09 mg/dl); type: functional
Rattus norvegicus [5] = assay: Diuretic activity in normotensive Wistar rat assessed as urine pH at 0.1 mg/kg, po administered via gavage after 8 hrs in presence of hydrochlorothiazide (reference value: 6.14 to 6.21); type: functional
[6] = Toxicity in normotensive Wistar rat assessed as changes in plasma nitrite acid level at 0.1 mg/kg, po administered for 7 days; type: organism-based; conditions: in vivo, 168 h
Rattus norvegicus [7] = assay: Diuretic activity in normotensive Wistar rat assessed as urine pH at 1 mg/kg, ip after 8 hrs (reference value: 6.05 +/- 0.22); type: functional
Rattus norvegicus [8] = assay: Diuretic activity in normotensive Wistar rat assessed as urinary chloride excretion at 0.1 mg/kg, po administered via gavage after 8 hrs in presence of L-NAME (reference value: 135.10 to 143.70 mmol/L); type: functional
Rattus norvegicus [9] = assay: Diuretic activity in normotensive Wistar rat assessed as urinary calcium excretion at 1 mg/kg, ip […] after 8 hrs (reference value: 5.28 +/- 0.09 mg/dl); type: functional

C[C@@H]1O[C@@H](Oc2c(-c3ccc(O)cc3)oc3cc(O)cc(O)c3c2=O)[C@H](O)[C@H](O)[C@H]1O [AFZELIN]
Activity (Rattus norvegicus [1]): 6.08 mg/dL
pH (Rattus norvegicus [2]): 6.29
Activity (Rattus norvegicus [3]): 15.61 mmol/L
Activity (Rattus norvegicus [4]): 5.6 mg/dL
pH (Rattus norvegicus [5]): 6.42
Activity [6]: Non-Toxic
pH (Rattus norvegicus [7]): 5.91
Activity (Rattus norvegicus [8]): 336.1 mmol/L
Activity (Rattus norvegicus [9]): 5.46 mg/dL
